Like-named read-outs stand apart in the source and are kept apart here.
How the values were obtained:
[1] = system: T. cruzi intracellular amastigotes; assay: Antiamastigote growth inhibition assay; type: cell-based; settings: intracellular amastigotes in Vero cells, mean (SD), read-out: T. cruzi IC50 b (antiamastigote assay)
Protocol: Vero cells were seeded in T-175 flasks (5 × 10^6 cells per flask) in DMEM supplemented with 1% penicillin–streptomycin and 10% FBS, and cultured for 24 h. Then, cells were washed once with PBS, and free-swimming trypomastigotes (1 × 10^7 trypomastigotes per flask; MOI = 1) in assay medium were added and allowed 18 h to infect. After that, infected cell monolayers were washed with PBS and detached. Cells were counted and diluted to a concentration of 5 × 10^5 cells per mL, before adding 100 µL per well to test plates already containing the drugs dispensed as described above. In all cases, we included BNZ as control drug, and each plate contained its own negative (Vero cells and parasites) and positive (Vero cells) controls.
(§1) Absorbance values derived from the anti-T. cruzi assays and fluorescence values from the anti-P. falciparum and cell toxicity assays were normalized to the controls. In the primary screening at three fixed doses, the compounds’ inhibitory activity was expressed as a percentage of the negative control (100% parasitic growth). In dose–response assays, the compounds’ IC50 and TC50 values were determined with GraphPad Prism 7 software (version 7.00, 2016), using a non-linear regression analysis model defined by the following equation: Y=100 ÷(1+10^((LogIC50−X)×HillSlope))

[2] = system: T. cruzi Tulahuen strain expressing β-galactosidase; assay: anti-T. cruzi dose-response growth inhibition assay (Vero cells plus trypomastigotes, CPRG readout); type: cell-based; settings: Vero cells plus trypomastigotes, MOI 1, four days, mean (SD), read-out: T. cruzi IC50 a (anti-T. cruzi assay)
[3] = system: Vero cells; assay: Vero cell toxicity assay (alamarBlue); type: cell-based, green monkey; settings: 4 days; minimum value of the 95% CI, except BNZ (mean (SD))
Protocol: Human erythrocytes were purified from B+ Rh+ blood samples and maintained at 4 °C in incomplete RPMI medium. Vero (green monkey kidney epithelial cells), LLC-MK2 (Rhesus monkey kidney epithelial cells), and HepG2 (human liver epithelial cells) cultures were cultivated in DMEM supplemented with 1% penicillin–streptomycin (PS) and 10% heat-inactivated fetal bovine serum (FBS) at 37 °C, 5% CO2, and >95% humidity, as described in [31]. HepG2 cells were also supplemented with 10% non-essential amino acids. Vero and MK2 cells were passaged twice per week at 1:12 ratios, while HepG2 cells were passaged at a 1:8 ratio.
Vero and HepG2 cells were detached, centrifuged, and resuspended in DMEM without phenol red. Cell viability was checked upon cell counting with trypan blue staining. Then, Vero and HepG2 cells were diluted at a concentration of 5 × 10^5 and 3.2 × 10^5 cells per mL, respectively, before adding 100 µL per well to the 96-well plate. Each run contained its own negative (untreated cells) and positive (medium alone) controls. Plates were incubated at 37 °C for 4 days in the case of Vero, or 2 in the case of HepG2 cells. Assay readout was made by adding 50 µL per well of a PBS solution containing 10% alamarBlue reagent (Thermo Fisher Scientific); then, plates were incubated for another 6 h at 37 °C, before recording the fluorescence intensity with a Tecan Infinite M Nano+ reader (excitation: 530 nm, emission: 590 nm).
as §1

[4] = system: T. cruzi Tulahuen strain expressing β-galactosidase; assay: T. cruzi primary screening at three fixed concentrations; type: cell-based
Protocol: T. cruzi parasites from the Tulahuen strain (discrete typing unit (DTU) VI) expressing β-galactosidase were maintained in culture by the infection of LLC-MK2 cells in DMEM supplemented with 2% FBS and 1% penicillin–streptomycin–glutamine (PSG), as described in [52]. When free-swimming trypomastigotes were released to the culture medium, they were centrifuged for 7 min at 2500 rpm and allowed to swim out of the pellet. Trypomastigotes were used to maintain the parasite cycle, or for the performance of the antiparasitic assays.
[…] Conditions were tested in triplicate for every concentration. Z-values varied between 0.81 and 0.92 in the different plates analyzed. Selected compounds (34.6% potential hit rate) were further analyzed via standard growth inhibition assays. The Z-values of dose–response assays correlated with those previously reported. For both assays, Vero cells and trypomastigotes from the Tulahuen T. cruzi strain expressing β-galactosidase were harvested, centrifuged, and resuspended in DMEM without phenol red supplemented with 1% PSG, 2% FBS, 1 mM sodium pyruvate, and 25 mM HEPES. Vero cells and trypomastigotes were counted, diluted at a concentration of 1 × 10^6 cells/mL each, and mixed 1:1 (v/v). Then, 100 μL of that mixture was added per well to the plates already containing the compounds. Each well contained 50,000 host cells and 50,000 parasites, i.e., multiplicity of infection (MOI) = 1. BNZ was used as control of maximal drug growth inhibition in each round, whereas each plate contained its own negative control (maximum parasite growth; Vero cells plus parasites without drugs) and positive control (minimum parasite growth; trypomastigote forms alone marking an enzymatic zero time or baseline galactosidase activity). After four days at 37 °C, 50 µL of a PBS solution containing 0.25% NP40 and 500 µM chlorophenol red-β-D-galactopyranoside (CPRG) substrate were added per well [32]. Plates were incubated at 37 °C for 4 h, and their absorbance read out at 590 nm using an Epoch Gene5 spectrophotometer.
as §1

[5] = compound at 10 µM, average of at least three independent experiments
[6] = Trypanosoma cruzi, TULAHUEN, 96 h

| Structure (SMILES) | IC50 [1] | IC50 [2] | Vero Cells TC50 [3] | Primary screening, growth inhibition values at 10 µM [4, 5] | IC50 ([1]; Trypanosoma cruzi) | IC50 [2, 6] | activity at 100 µM ([4]; Trypanosoma cruzi, TULAHUEN, read-out: Primary screening, growth inhibition values at 100 µM) | activity at 1 µM ([4]; Trypanosoma cruzi, TULAHUEN, compound at 1 µM, average of at least three independent experiments, read-out: Primary screening, growth inhibition values at 1 µM) | activity at 10 µM ([4]; Trypanosoma cruzi, TULAHUEN, compound at 10 µM, average of at least three independent experiments, read-out: Primary screening, growth inhibition values at 10 µM) |
| --- | --- | --- | --- | --- | --- | --- | --- | --- | --- |
| c1ccc(CCn2c(-c3ccccc3)nc3c(OCc4ccccc4)ncnc32)cc1 [Compound 6g] | 19.6 µM | 3.97 µM | >150 µM | 87.76 | – | – | – | – | – |
| CC(C)(C)n1c(-c2ccccc2)nc2c(OCc3ccccc3)ncnc21 [Compound 6D] | – | – | >150 µM | 84.14 | 3.78 µM | 5.56 µM | – | – | – |
| COC(=O)c1ccccc1-n1cc(COc2ncnc3c2nc(-c2ccccc2)n3N(C)C)nn1 [Compound 34] | – | – | >6000 µM | – | 4.24 µM | 4.12 µM | 13.9% | 68% | 66.9% |
